Data as given in US8415364B2, “Method of preventing or treating glaucoma” (Duke University, priority 2003, dated 2013).

Columns and labels:
[1] = tested on: Porcine primary trabecular meshwork (PTM) cells; test: Actin stress fibers (phalloidin) and focal adhesion (vinculin) immunofluorescence staining in PTM cells; format: cell-based
Experimental: (§1) Porcine primary trabecular meshwork (PTM) and ciliary muscle cells (PCM) were cultured and treated with lovastatin or compactin at concentrations of 25 μM and 50 μM. Effects on actin stress fibers (phalloidin staining) and focal adhesion formation (vinculin) were evaluated by immunofluorescence staining. Urea/glycerol polyacrylamide gel electrophoresis and Western blot analysis were utilized to investigate the effects of statins on myosin light chain (MLC) phosphorylation. Changes in cell shape were recorded using the phase contrast microscope. A constant flow organ culture perfusion system was used to measure outflow facility in perfused porcine eye anterior segments.

[2] = tested on: perfused porcine eye anterior segments; test: Constant flow organ culture perfusion of porcine eye anterior segments
Experimental: as §1

[3] = tested on: Porcine primary trabecular meshwork (PTM) cells; test: Cell shape by phase contrast microscopy in PTM cells; format: cell-based
Experimental: as §1

[4] = tested on: myosin light chain (MLC) phosphorylation; test: MLC phosphorylation by urea/glycerol PAGE and Western blot in PTM cells; format: cell-based, porcine
Experimental: as §1

[5] = PTM cells, within 24 hours of drug administration

CC(C)=CCC/C(C)=C/CC/C(C)=C/CC/C(C)=C/COP(=O)(O)OP(=O)(O)O [geranylgeranyl pyrophosphate]
effect on lovastatin-induced changes in cell shape and cytoskeletal organization ([1]; supplementation of cell culture media containing lovastatin): completely reversed

CC[C@H](C)C(=O)O[C@H]1C[C@@H](C)C=C2C=C[C@H](C)[C@H](CC[C@@H]3C[C@@H](O)CC(=O)O3)[C@H]21 [lovastatin]
effect on actin stress fibers [1, 5]: actin depolymerization | effect on focal adhesions [1, 5]: loss of focal adhesions | drop in intraocular pressure ([2]; 100 μM, at 72 hours, control eyes 22% reduction, ongoing study): 48% | ability to decrease IOP ([2]; organ culture perfusion model): ability to decrease IOP | changes in cell shape ([3]; 25 μM and 50 μM): dramatic changes in cell shape | reversibility of morphological changes ([3]; upon drug withdrawal): reversible upon drug withdrawal | MLC phosphorylation [4]: marked reduction
